Measurements taken from paper PMC3114813 (Environmental Health Perspectives, 2011).
Entries after “also recorded” stand apart in the source; their conditions may differ. Where two headings read alike, the source gives them in different places.

Key:
MDA-kb2 cells = settings: for Cytotoxic EC20 (μM) MDA-kb2: EC20 = concentration that produces a 20% effect
Description: (§1) MDA-kb2 cells are human breast cancer cells stably transfected with a firefly luciferase reporter gene that is driven by an androgen-response element–containing promoter ([Wilson et al. 2002]). Details of the modified assay were published previously ([Ermler et al. 2010]). Briefly, cells were seeded at a concentration of 1 × 10^5 cells/mL in phenol red–free Leibowitz-15 medium (Invitrogen Ltd., Paisley, UK) containing 10% (charcoal-stripped) fetal calf serum (Invitrogen Ltd.) in white luminometer plates and allowed to attach for 24 hr. Cells were then exposed to eight serial dilutions of selected pesticides with or without DHT (0.25 nM). After 24 hr, luciferase activity was determined with SteadyGlo assay reagent (Promega UK Ltd., Southampton, Hampshire, UK) and measured in a plate reader (FLUOstar Optima, BMG Labtech GmbH, Offenburg, Germany). […] All concentrations were tested in duplicate over two plates, and each pesticide was measured at least twice in separate experiments. For comparative purposes, luminescence was normalized to DHT alone at coexposure concentration (maximum response, 100%) and solvent-only (ethanol) controls (minimum response, 0%). […] Pesticides were initially tested over a concentration range of 0.64 nM–50 μM (5× dilutions) as a range-finding exercise. Subsequently, the concentration ranges were modified to reflect the potency and toxicity of each individual compound. […] Sixty percent of the pesticides were repeat tested using the same product but with new stock solutions and by a different experimenter.
(§2) To analyze antiandrogenic action, raw luminescence readings were normalized on a plate-by-plate basis to the means of the positive DHT controls (n = 8) and the solvent controls (n = 8) ([Ermler et al. 2010]). […] Specifically, a variety of nonlinear regression models were fitted independently to the same data set, and the best-fitting model was selected using a statistical goodness-of-fit criterion. […] Data considered to be statistically significant at p < 0.05 were analyzed using the best-fit approach as described above. All statistical analysis was performed using SAS statistical software (SAS Institute Inc., Cary, NC, USA). From the best-fitting model, we derived inhibitory concentrations for antiandrogenicity and effect concentrations for cytotoxicity.

androgen receptor (AR) [1] = target: T1, androgen receptor (AR) (Homo sapiens, UniProt P10275, Q868H); format: cell-based
T1 construct: MDA-kb2 cells are human breast cancer cells stably transfected with a firefly luciferase reporter gene; endogenous in cells; host or cells: MDA-kb2 (human breast cancer cells)
T1 sequence (P10275 1-920 Q868H): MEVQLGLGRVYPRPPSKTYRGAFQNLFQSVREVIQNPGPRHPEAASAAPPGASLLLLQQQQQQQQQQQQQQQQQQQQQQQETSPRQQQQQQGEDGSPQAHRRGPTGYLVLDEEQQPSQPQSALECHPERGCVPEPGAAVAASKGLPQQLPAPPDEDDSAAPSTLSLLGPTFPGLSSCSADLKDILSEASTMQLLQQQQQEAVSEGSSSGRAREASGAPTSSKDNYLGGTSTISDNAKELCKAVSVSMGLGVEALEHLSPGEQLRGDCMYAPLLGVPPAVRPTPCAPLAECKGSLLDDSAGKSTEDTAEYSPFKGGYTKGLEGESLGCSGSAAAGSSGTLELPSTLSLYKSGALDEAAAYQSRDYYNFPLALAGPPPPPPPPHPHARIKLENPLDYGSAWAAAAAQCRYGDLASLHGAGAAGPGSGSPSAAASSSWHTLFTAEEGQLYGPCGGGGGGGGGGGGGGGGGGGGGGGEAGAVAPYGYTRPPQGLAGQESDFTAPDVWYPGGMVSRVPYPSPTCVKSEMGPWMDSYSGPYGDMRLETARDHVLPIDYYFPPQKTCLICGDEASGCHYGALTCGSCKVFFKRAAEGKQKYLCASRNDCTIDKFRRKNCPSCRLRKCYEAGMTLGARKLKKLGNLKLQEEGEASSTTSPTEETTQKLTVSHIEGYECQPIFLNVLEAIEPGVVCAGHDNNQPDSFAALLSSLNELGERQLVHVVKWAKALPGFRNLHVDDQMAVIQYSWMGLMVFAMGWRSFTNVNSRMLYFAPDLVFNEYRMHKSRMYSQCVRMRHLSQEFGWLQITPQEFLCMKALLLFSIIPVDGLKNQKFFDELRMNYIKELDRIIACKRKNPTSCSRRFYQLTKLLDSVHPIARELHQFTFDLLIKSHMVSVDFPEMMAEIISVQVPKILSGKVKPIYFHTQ
Description: as §1, §2

androgen receptor (AR) [2] = target: T1, androgen receptor (AR); assay: cell-based; settings: for IC20: MDA-kb2, read-out: Antiandrogen IC20 (μM) MDA-kb2
Description: as §1, §2

yeast = assay: YAS, cytotoxicity (turbidity at 620 nm); format: cell-based; settings: for Cytotoxic EC20 (μM) YAS: EC20 = concentration that produces a 20% effect, yeast turbidity
Description: The methods for the YAS have been described previously ([Sohoni and Sumpter 1998]). Briefly, stimulation of the transfected AR causes a color change in the media, which is measured by absorbance at 540 nm (Labsystems Multiskan Multisoft, Vienna, VA, USA). Plates were also measured at 620 nm to measure cell growth (turbidity) to check for any cytotoxic effects that may have occurred. Pesticides were coincubated with DHT (6.4 nM). […] Incubation time was 53 hr at 28°C. […] Pesticide serial dilutions were tested in duplicate over two plates and were tested in two separate experiments.

[3] = androgenic in the absence of DHT, Neg = no response was observed
[4] = total exposure score / IC20 (MDA-kb2), recalculated using experimental data

Compound: CCOC(=O)OC1=C(c2cc(C)ccc2C)C(=O)N[C@]12CC[C@@H](OC)CC2 [Spirotetramat]
- Cytotoxic EC20 (μM) MDA-kb2 (MDA-kb2 cells): > 50 µM

Compound: C#CCOc1ccc(CCNC(=O)C(OCC#C)c2ccc(Cl)cc2)cc1OC (stereo not shown) [Mandipropamid]
- Androgen EC20 (μM) MDA-kb2 (androgen receptor (AR) [1]; [3]): Neg
- Cytotoxic EC20 (μM) MDA-kb2 (MDA-kb2 cells): 8.92 µM
- Antiandrogen IC20 (μM) MDA-kb2 (androgen receptor (AR) [2]): Neg

Compound: Fc1ccc(Oc2ccnc3cc(Cl)cc(Cl)c23)cc1 [Quinoxyfen]
- Cytotoxic EC20 (μM) YAS (yeast): > 75 µM
- Cytotoxic EC20 (μM) MDA-kb2 (MDA-kb2 cells): 10.1 µM

Compound: CNC(=O)Oc1cc(C)c(SC)c(C)c1 [Methiocarb]
- Androgen EC20 (μM) MDA-kb2 (androgen receptor (AR) [1]; [3]): Neg
- Cytotoxic EC20 (μM) MDA-kb2 (MDA-kb2 cells): > 46 µM
- IC20 (androgen receptor (AR) [2]): 6.82 µM
- ERR (environmental relevance ratio) (androgen receptor (AR) [2]; [4]): 2.5

Compound: C=CC1(C)OC(=O)N(c2cc(Cl)cc(Cl)c2)C1=O (stereo not shown) [Vinclozolin]
- Cytotoxic EC20 (μM) MDA-kb2 (MDA-kb2 cells): > 50 µM

Compound: CC(C)C(=O)Nc1ccc([N+](=O)[O-])c(C(F)(F)F)c1 [flutamide, reference compound]
- Cytotoxicity in the MDA-kb2 assay (in words) (MDA-kb2 cells): overlap of toxic effects on the cells with antiandrogenic activity

Compound: Cc1cc(C2CC2)nc(Nc2ccccc2)n1 [Cyprodinil]
- Cytotoxic EC20 (μM) MDA-kb2 (MDA-kb2 cells): > 50 µM

Compound: CC1(C)C(/C=C(\Cl)C(F)(F)F)C1C(=O)OC(C#N)c1cccc(Oc2ccccc2)c1 (stereo not shown) [λ-Cyhalothrin]
- Cytotoxic EC20 (μM) YAS (yeast): > 200 µM
- Cytotoxic EC20 (μM) MDA-kb2 (MDA-kb2 cells): 51.4 µM

Compound: COP(=S)(OC)SCn1nnc2ccccc2c1=O [Azinphos-methyl]
- Androgen EC20 (μM) MDA-kb2 (androgen receptor (AR) [1]; [3]): Neg
- Cytotoxic EC20 (μM) YAS (yeast): > 150 µM
- Cytotoxic EC20 (μM) MDA-kb2 (MDA-kb2 cells): 33.9 µM
- Antiandrogenic activity in the MDA-kb2 assay (in words) (androgen receptor (AR) [2]; MDA-kb2 / 'our assay'): antiandrogenic; also recorded: in vitro AR antagonists

Compound: COC(=O)N(OC)c1ccccc1COc1ccn(-c2ccc(Cl)cc2)n1 [Pyraclostrobin]
- Cytotoxic EC20 (μM) MDA-kb2 (MDA-kb2 cells): 0.089 µM

Compound: CCCN(CC)CC1COC2(CCC(C(C)(C)C)CC2)O1 (stereo not shown) [Spiroxamine]
- Cytotoxic EC20 (μM) MDA-kb2 (MDA-kb2 cells): 9.29 µM

Compound: CC(C)OC(=O)Nc1cccc(Cl)c1 [Chlorpropham]
- Cytotoxic EC20 (μM) YAS (yeast): > 40 µM
- Cytotoxic EC20 (μM) MDA-kb2 (MDA-kb2 cells): > 50 µM

Compound: C#CCOS(=O)OC1CCCCC1Oc1ccc(C(C)(C)C)cc1 (stereo not shown) [Propargite]
- Cytotoxic EC20 (μM) MDA-kb2 (MDA-kb2 cells): 0.487 µM

Compound: CCCSP(=O)(OCC)Oc1ccc(Br)cc1Cl (stereo not shown) [Profenofos]
- Cytotoxic EC20 (μM) MDA-kb2 (MDA-kb2 cells): 8.61 µM

Compound: O=C(NC(=O)c1c(F)cccc1F)Nc1ccc(OC(F)(F)C(F)OC(F)(F)F)c(Cl)c1 (stereo not shown) [Novaluron]
- Cytotoxic EC20 (μM) MDA-kb2 (MDA-kb2 cells): > 50 µM

Compound: COC(=O)N(C(=O)N1CO[C@@]2(C(=O)OC)Cc3cc(Cl)ccc3C2=N1)c1ccc(OC(F)(F)F)cc1 [Indoxacarb]
- Androgen EC20 (μM) MDA-kb2 (androgen receptor (AR) [1]; [3]): Neg
- Cytotoxic EC20 (μM) MDA-kb2 (MDA-kb2 cells): 11.3 µM
- Antiandrogen IC20 (μM) MDA-kb2 (androgen receptor (AR) [2]): Neg

Compound: ClC(Cl)=C(c1ccc(Cl)cc1)c1ccc(Cl)cc1 [p,p′-DDE, p,p′-1,1-bis-(4-chlorophenyl)-2,2-dichloroethene]
- Cytotoxic EC20 (μM) MDA-kb2 (MDA-kb2 cells): > 50 µM

Compound: Oc1ccccc1-c1ccccc1 [O-Phenylphenol]
- Cytotoxic EC20 (μM) MDA-kb2 (MDA-kb2 cells): > 50 µM

Compound: CC1COC(Cn2cncn2)(c2ccc(Oc3ccc(Cl)cc3)cc2Cl)O1 (stereo not shown) [Difenoconazole]
- Cytotoxic EC20 (μM) YAS (yeast): 0.109 µM
- Cytotoxicity in the YAS assay (in words) (yeast): cytotoxic
- Cytotoxic EC20 (μM) MDA-kb2 (MDA-kb2 cells): 2.91 µM

Compound: COP(=S)(OC)Oc1ccc([N+](=O)[O-])c(C)c1 [Fenitrothion]
- Cytotoxic EC20 (μM) MDA-kb2 (MDA-kb2 cells): > 50 µM

Compound: O=S1OCC2C(CO1)C1(Cl)C(Cl)=C(Cl)C2(Cl)C1(Cl)Cl (stereo not shown) [Endosulfan]
- Androgen EC20 (μM) MDA-kb2 (androgen receptor (AR) [1]): Neg
- Cytotoxic EC20 (μM) MDA-kb2 (MDA-kb2 cells): 33.8 µM
- Antiandrogenic activity in the MDA-kb2 assay (in words) (androgen receptor (AR) [2]): in vitro AR antagonists
- ERR (environmental relevance ratio) (androgen receptor (AR) [2]): 3.1
- IC20 (androgen receptor (AR) [2]): 6.05 µM

Compound: OC(c1ccc(Cl)cc1)(c1ccc(Cl)cc1)C(Cl)(Cl)Cl [Dicofol]
- Cytotoxic EC20 (μM) MDA-kb2 (MDA-kb2 cells): 29.0 µM

Compound: Spinosad
- Androgen EC20 (μM) MDA-kb2 (androgen receptor (AR) [1]; [3]): Neg
- Cytotoxic EC20 (μM) MDA-kb2 (MDA-kb2 cells): 13.1 µM
- Antiandrogen IC20 (μM) MDA-kb2 (androgen receptor (AR) [2]): Neg

Compound: CC(C)OC(=O)C(O)(c1ccc(Br)cc1)c1ccc(Br)cc1 [Bromopropylate]
- Androgen EC20 (μM) MDA-kb2 (androgen receptor (AR) [1]; [3]): Neg
- Cytotoxic EC20 (μM) MDA-kb2 (MDA-kb2 cells): 27.2 µM
- IC20 (androgen receptor (AR) [2]): 0.54 µM
- Antiandrogenic activity in the MDA-kb2 assay (in words) (androgen receptor (AR) [2]; MDA-kb2 / 'our assay'): in vitro AR antagonists
- ERR (environmental relevance ratio) (androgen receptor (AR) [2]; [4]): 24.1

Compound: Cc1cc(C)nc(Nc2ccccc2)n1 [Pyrimethanil]
- Cytotoxic EC20 (μM) YAS (yeast): 167 µM
- Cytotoxicity in the YAS assay (in words) (yeast): cytotoxic
- Cytotoxic EC20 (μM) MDA-kb2 (MDA-kb2 cells): > 125 µM

Compound: CO/C=C(/C(=O)OC)c1ccccc1Oc1cc(Oc2ccccc2C#N)ncn1 [Azoxystrobin]
- Androgen EC20 (μM) MDA-kb2 (androgen receptor (AR) [1]; [3]): Neg
- Cytotoxic EC20 (μM) MDA-kb2 (MDA-kb2 cells): 2.9 µM
- Antiandrogen IC20 (μM) MDA-kb2 (androgen receptor (AR) [2]): Neg

Compound: Cc1c(COC(=O)[C@@H]2[C@H](/C=C(\Cl)C(F)(F)F)C2(C)C)cccc1-c1ccccc1 (racemic) [Bifenthrin]
- Cytotoxic EC20 (μM) YAS (yeast): > 200 µM
- Cytotoxicity in the MDA-kb2 assay (in words) (MDA-kb2 cells): cytotoxic
- Cytotoxic EC20 (μM) MDA-kb2 (MDA-kb2 cells): 22.2 µM
